Results as given in ChEMBL document CHEMBL5724696, “Autophagy assay results for EUbOPEN Chemogenomics Library” (2024).

Experiments:
Format in all cases: functional, Homo sapiens
[1] = test system: U2OS; assay: (§1) Here: values are normalized to the negative (DMSO; defined as 0% autophagy induction) and positive (250nM Torin1; mTOR inhibitor; defined as maximal inducer of autophagy = 100%) control compounds and represented as % of autophagy induction. […] The impact of autophagy induction on cells is complex and depends on the affected target. As such, the magnitude of a phenotype may not be equally mirrored in the %-value of autophagy induction and vice versa. The dynamics of the induction may indicate the mode of activation: e.g. activation via phosphorylation or a signaling cascade may occur fast, while activation via transcription factors may take considerably longer. […] Of note, treatment concentrations may be sub-optimal for specific compounds, leading to false negative annotations.; conditions: Culturing Media DMEM, 1 % Penicillin/Streptomycin, 10% Fetal bovin serum Add-On: No, Screening Media Control DMEM, Screening Media Samples DMEM
[2] = test system: TERT-RPE1; assay: as §1; conditions: Culturing Media DMEM/F12 (1:1), 1 % Penicillin/Streptomycin, 10% Fetal bovin serum Add-On: No, Screening Media Control DMEM/F12 (1:1), Screening Media Samples DMEM/F12 (1:1)
[3] = test system: U2OS; assay: as §1; conditions: Culturing Media DMEM, 1 % Penicillin/Streptomycin, 10% Fetal bovin serum Add-On: No, Screening Media Control DMEM, Screening Media Samples DMEM; remark: listed apart in the source
[4] = Compound Concentration 0.5 uM, Timepoint 12 hours
[5] = Compound Concentration 0.5 uM, Timepoint 24 hours
[6] = Compound Concentration 0.5 uM, Timepoint 36 hours
[7] = Compound Concentration 0.5 uM, Timepoint 60 hours
[8] = Compound Concentration 2 uM, Timepoint 12 hours
[9] = Compound Concentration 2 uM, Timepoint 24 hours
[10] = Compound Concentration 2 uM, Timepoint 36 hours
[11] = Compound Concentration 2 uM, Timepoint 60 hours
[12] = Compound Concentration 10 uM, Timepoint 12 hours
[13] = Compound Concentration 10 uM, Timepoint 24 hours
[14] = Compound Concentration 10 uM, Timepoint 36 hours
[15] = Compound Concentration 10 uM, Timepoint 60 hours

Row | Compound | autophagy induction [1, 4] | autophagy induction [1, 5] | autophagy induction [1, 6] | autophagy induction [1, 7] | autophagy induction [1, 8] | autophagy induction [1, 9] | autophagy induction [1, 10] | autophagy induction [1, 11] | autophagy induction [1, 12] | autophagy induction [1, 13] | autophagy induction [1, 14] | autophagy induction [1, 15] | autophagy induction [2, 4] | autophagy induction [2, 5] | autophagy induction [2, 6] | autophagy induction [2, 7] | autophagy induction [2, 8] | autophagy induction [2, 9] | autophagy induction [2, 10] | autophagy induction [2, 11] | further results
1 | O=C(O)C1CN(Cc2ccc(-c3nc4cc(Cc5ccccc5F)ccc4s3)c(F)c2)C1 | 3.797% | -4.944% | -8.688% | -8.1655% | 22.0588% | 16.1887% | 14.8366% | 4.458% | 26.4516% | 18.766% | 13.3531% | 2.726% | -8.917% | -10.8072% | -9.562% | -5.859% | -8.468% | -9.963% | -11.3812% | -13.3438% | autophagy induction [2, 12]: -4.678%; autophagy induction [2, 13]: -6.178%; autophagy induction [2, 14]: -7.73%; autophagy induction [2, 15]: -6.2118%; autophagy induction [3, 4]: 4.055%; autophagy induction [3, 5]: -0.4566%; autophagy induction [3, 6]: -1.32%; autophagy induction [3, 7]: -0.5858%; autophagy induction [3, 8]: 1.76%; autophagy induction [3, 9]: 0.3602%; autophagy induction [3, 10]: -0.6521%; autophagy induction [3, 11]: -0.7655%; autophagy induction [3, 12]: -1.302%; autophagy induction [3, 13]: -1.781%; autophagy induction [3, 14]: -1.367%; autophagy induction [3, 15]: -0.5842%
2 | Cc1nnn(-c2ccc(-c3ccc(C4(C(=O)O)CC4)cc3)cc2)c1NC(=O)O[C@H](C)c1ccccc1 | -1.478% | 0.2424% | -2.356% | -5.696% | 5.693% | 3.627% | 6.347% | 1.322% | 9.873% | 11.541% | 8.0313% | 1.41% | -8.995% | -11.6561% | -16.9316% | -15.4997% | -6.061% | -9.8231% | -13.2189% | 6.862% | autophagy induction [2, 12]: 6.725%; autophagy induction [2, 13]: 7.557%; autophagy induction [2, 14]: 8.9017%; autophagy induction [2, 15]: 33.5372%; autophagy induction [3, 4]: 2.665%; autophagy induction [3, 5]: 0.2559%; autophagy induction [3, 6]: -0.1373%; autophagy induction [3, 7]: 0.1457%; autophagy induction [3, 8]: 3.283%; autophagy induction [3, 9]: 0.4892%; autophagy induction [3, 10]: -0.1911%; autophagy induction [3, 11]: -0.4752%; autophagy induction [3, 12]: 8.52%; autophagy induction [3, 13]: 5.722%; autophagy induction [3, 14]: 2.388%; autophagy induction [3, 15]: 0.4676%
3 | CC(C)C[C@H](NC(=O)N1CCCCCC1)C(=O)N[C@H](Cc1cn(C)c2ccccc12)C(=O)N[C@H](Cc1ccccn1)C(=O)O | 4.132% | 4.485% | 3.039% | -0.6751% | 3.762% | 6.744% | 4.273% | 0.0386% | 4.084% | 1.596% | 3.219% | 5.8133% | -9.746% | -10.9738% | -11.345% | -17.0217% | -8.2266% | -8.649% | -10.3216% | -11.9295% | autophagy induction [2, 12]: -4.458%; autophagy induction [2, 13]: -5.829%; autophagy induction [2, 14]: -9.562%; autophagy induction [2, 15]: -13.6367%; autophagy induction [3, 4]: 0.2891%; autophagy induction [3, 5]: 0.184%; autophagy induction [3, 6]: -1.273%; autophagy induction [3, 7]: 0.7204%; autophagy induction [3, 8]: 2.596%; autophagy induction [3, 9]: 1.655%; autophagy induction [3, 10]: -0.3512%; autophagy induction [3, 11]: -0.2043%; autophagy induction [3, 12]: 5.448%; autophagy induction [3, 13]: 0.3648%; autophagy induction [3, 14]: -0.3169%; autophagy induction [3, 15]: 1.561%
4 | COC1CCN(c2cccc(-c3cc(NC(C)=O)nc(-n4nc(C)cc4C)n3)n2)CC1 | 34.4556% | 27.7724% | 24.8838% | 23.4921% | -5.934% | -0.6278% | -1.762% | -0.9306% | -4.754% | 3.79% | 9.047% | 19.3391% | -7.33% | -8.964% | -12.5665% | -12.2397% | -1.032% | 0.9672% | 2.277% | 7.2174% | autophagy induction [2, 12]: 3.426%; autophagy induction [2, 13]: 13.112%; autophagy induction [2, 14]: 27.8595%; autophagy induction [2, 15]: 52.8636%; autophagy induction [3, 4]: 2.5303%; autophagy induction [3, 5]: -0.8923%; autophagy induction [3, 6]: -0.9403%; autophagy induction [3, 7]: 0.4833%; autophagy induction [3, 8]: 5.065%; autophagy induction [3, 9]: 2.721%; autophagy induction [3, 10]: -0.07864%; autophagy induction [3, 11]: -0.6053%; autophagy induction [3, 12]: 7.172%; autophagy induction [3, 13]: -0.05151%; autophagy induction [3, 14]: 0.1867%; autophagy induction [3, 15]: -2.376%
